In ChEMBL document CHEMBL1137908, “Synthesis and antibacterial activity of novel 6-fluoro-1-[(1R,2S)-2-fluorocyclopropan-1-yl]-4-oxoquinoline-3-carboxylic acids bearing cyclopropane-fused 2-amino-8-azabicyclo[4.3.0]nonan-8-yl substituents at the C-7 position” (Bioorg Med Chem Lett, 2004):
In brackets after ≈: the same amount, converted by molar mass.

Key:
[1] = biological target: T1, DNA topoisomerase 4 subunit A (Staphylococcus aureus subsp. aureus Mu50, UniProt Q931S2); test: Inhibitory concentration against Staphylococcus aureus DNA topoisomerase IV
T1 sequence (Q931S2 whole entry): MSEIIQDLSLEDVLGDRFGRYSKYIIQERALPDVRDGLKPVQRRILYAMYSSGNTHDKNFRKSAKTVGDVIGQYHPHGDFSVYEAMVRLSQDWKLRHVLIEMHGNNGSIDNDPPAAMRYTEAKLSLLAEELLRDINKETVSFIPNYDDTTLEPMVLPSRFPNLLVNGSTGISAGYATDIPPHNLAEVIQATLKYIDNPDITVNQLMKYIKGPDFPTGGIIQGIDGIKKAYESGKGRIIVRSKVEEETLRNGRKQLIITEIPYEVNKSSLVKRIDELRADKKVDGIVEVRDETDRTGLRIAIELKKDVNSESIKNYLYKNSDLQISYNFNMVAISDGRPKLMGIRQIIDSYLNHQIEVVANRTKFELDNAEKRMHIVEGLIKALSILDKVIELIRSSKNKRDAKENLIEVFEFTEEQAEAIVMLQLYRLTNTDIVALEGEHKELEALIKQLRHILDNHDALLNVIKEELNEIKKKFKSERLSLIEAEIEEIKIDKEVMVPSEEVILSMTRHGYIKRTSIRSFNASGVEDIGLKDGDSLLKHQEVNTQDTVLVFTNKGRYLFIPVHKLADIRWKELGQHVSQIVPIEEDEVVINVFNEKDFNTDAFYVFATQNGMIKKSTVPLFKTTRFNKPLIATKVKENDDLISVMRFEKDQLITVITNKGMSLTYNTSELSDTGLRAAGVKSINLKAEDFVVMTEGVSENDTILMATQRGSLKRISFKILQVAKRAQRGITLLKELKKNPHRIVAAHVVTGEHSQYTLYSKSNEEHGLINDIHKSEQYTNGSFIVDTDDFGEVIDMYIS

Klebsiella pneumoniae = test: Antibacterial activity against Klebsiella pneumoniae type II was determined; type: functional
Staphylococcus aureus [2] = test: Antibacterial activity against Staphylococcus aureus FDA 209P was determined; type: functional
[3] = tested on: Staphylococcus epidermidis; test: Antibacterial activity against Staphylococcus epidermidis 56500 was determined; type: functional
Enterococcus faecalis = test: Antibacterial activity against Enterococcus faecalis ATCC 19433 was determined; type: functional
[4] = Ratio of binding to human DNA topoisomerase II and Staphylococcus aureus DNA topoisomerase IV
Streptococcus pyogenes = test: Antibacterial activity against Streptococcus pyogenes G-36 was determined; type: functional
Escherichia coli = test: Antibacterial activity against Escherichia coli NIHJ was determined; type: functional
Staphylococcus aureus [5] = test: Antibacterial activity against methicillin-resistant Staphylococcus aureus (MRSA) 870307 was determined; type: functional
Streptococcus mitis = test: Antibacterial activity against Streptococcus mitis IID685 was determined; type: functional
DNA topoisomerase II = DNA topoisomerase II (Homo sapiens, UniProt P11388+Q02880); test: Inhibitory concentration against human DNA topoisomerase II; type: protein assay
Streptococcus pneumoniae = test: Antibacterial activity against Penicillin-resistant Streptococcus pneumoniae (PRSP) J-24 was determined; type: functional
[6] = Klebsiella pneumoniae, read-out: MIC
[7] = Staphylococcus aureus, read-out: MIC
[8] = Staphylococcus epidermidis, read-out: MIC
[9] = Enterococcus faecalis, ATCC 19433, read-out: MIC
[10] = Streptococcus pyogenes, read-out: MIC
[11] = Escherichia coli, read-out: MIC
[12] = Streptococcus mitis, read-out: MIC
[13] = Streptococcus pneumoniae, read-out: MIC

## Cc1c(N2C[C@H]3CCC[C@@H](N)[C@H]3C2)c(F)c(N)c2c(=O)c(C(=O)O)cn([C@@H]3C[C@@H]3F)c12
[1]
  IC50: 0.717 µM
Klebsiella pneumoniae; [6]
  MIC: 0.02 µg/mL (≈ 0.0462 µM)
Staphylococcus aureus [2]; [7]
  MIC: 0.006 µg/mL (≈ 0.0139 µM)
[3]; [8]
  MIC: ≤ 0.003 µg/mL
Enterococcus faecalis; [9]
  MIC: 0.02 µg/mL (≈ 0.0462 µM)
[4]
  Selectivity: 14.7
Streptococcus pyogenes; [10]
  MIC: ≤ 0.003 µg/mL
Escherichia coli; [11]
  MIC: 0.006 µg/mL (≈ 0.0139 µM)
Staphylococcus aureus [5]; [7]
  MIC: 0.01 µg/mL (≈ 0.0231 µM)
Streptococcus mitis; [12]
  MIC: ≤ 0.003 µg/mL
DNA topoisomerase II
  IC50: 4.66 µg/mL (≈ 10.8 µM)
Streptococcus pneumoniae; [13]
  MIC: ≤ 0.003 µg/mL

## Cc1c(N2C[C@H]3CC[C@H]4C[C@@]4(N)[C@H]3C2)c(F)c(N)c2c(=O)c(C(=O)O)cn([C@@H]3C[C@@H]3F)c12
[1]
  IC50: 0.81 µM
Klebsiella pneumoniae; [6]
  MIC: 0.01 µg/mL (≈ 0.0225 µM)
Staphylococcus aureus [2]; [7]
  MIC: ≤ 0.003 µg/mL
[3]; [8]
  MIC: ≤ 0.003 µg/mL
Enterococcus faecalis; [9]
  MIC: 0.02 µg/mL (≈ 0.045 µM)
[4]
  Selectivity: 93.2
Streptococcus pyogenes; [10]
  MIC: ≤ 0.003 µg/mL
Escherichia coli; [11]
  MIC: ≤ 0.003 µg/mL
Staphylococcus aureus [5]; [7]
  MIC: 0.01 µg/mL (≈ 0.0225 µM)
Streptococcus mitis; [12]
  MIC: ≤ 0.003 µg/mL
DNA topoisomerase II
  IC50: 34.21 µg/mL (≈ 77 µM)
Streptococcus pneumoniae; [13]
  MIC: 0.006 µg/mL (≈ 0.0135 µM)

## Nc1c(F)c(N2C[C@H]3CC[C@H]4C[C@@]4(N)[C@H]3C2)c(F)c2c1c(=O)c(C(=O)O)cn2[C@@H]1C[C@@H]1F (stereo in doubt; 13 (+)) [listing 1 of 2 here]
[1]
  IC50: 0.669 µM
Klebsiella pneumoniae
  MIC: 0.01 µg/mL (≈ 0.0223 µM)
Staphylococcus aureus [2]; [7]
  MIC: ≤ 0.003 µg/mL
[3]
  MIC: <=0.003 ug ml-1
Enterococcus faecalis
  MIC: 0.02 µg/mL (≈ 0.0446 µM)
Streptococcus pyogenes
  MIC: <=0.003 ug ml-1
Escherichia coli; [11]
  MIC: ≤ 0.003 µg/mL
Staphylococcus aureus [5]
  MIC: 0.006 µg/mL (≈ 0.0134 µM)
Streptococcus mitis
  MIC: <=0.003 ug ml-1
DNA topoisomerase II
  IC50: 21.89 µg/mL (≈ 48.8 µM)
Streptococcus pneumoniae
  MIC: <=0.003 ug ml-1

## Nc1c(F)c(N2C[C@H]3CC[C@H]4C[C@@]4(N)[C@H]3C2)c(F)c2c1c(=O)c(C(=O)O)cn2[C@@H]1C[C@@H]1F (stereo in doubt; 13 (+)) [listing 2 of 2 here]
[4]
  Selectivity: 71.3

## Nc1c(F)c(N2C[C@H]3CC[C@H]4C[C@@]4(N)[C@H]3C2)c(F)c2c1c(=O)c(C(=O)O)cn2[C@@H]1C[C@@H]1F (stereo in doubt; 14 (-))
Klebsiella pneumoniae
  MIC: 0.05 µg/mL (≈ 0.111 µM)
[3]
  MIC: 0.02 µg/mL (≈ 0.0446 µM)
Enterococcus faecalis
  MIC: 0.2 µg/mL (≈ 0.446 µM)
Streptococcus pyogenes
  MIC: 0.05 µg/mL (≈ 0.111 µM)
Escherichia coli
  MIC: 0.006 µg/mL (≈ 0.0134 µM)
Staphylococcus aureus [5]
  MIC: 0.2 µg/mL (≈ 0.446 µM)
Streptococcus mitis
  MIC: 0.02 µg/mL (≈ 0.0446 µM)
Streptococcus pneumoniae
  MIC: 0.02 µg/mL (≈ 0.0446 µM)

## Nc1c(F)c(N2C[C@H]3C[C@@H]4C[C@@H]4[C@@H](N)[C@H]3C2)c(F)c2c1c(=O)c(C(=O)O)cn2[C@@H]1C[C@@H]1F (stereo in doubt; 24 (+)) [listing 1 of 2 here]
[1]
  IC50: 0.312 µM
Klebsiella pneumoniae
  MIC: 0.01 µg/mL (≈ 0.0223 µM)
Staphylococcus aureus [2]; [7]
  MIC: ≤ 0.003 µg/mL
[3]
  MIC: <=0.003 ug ml-1
Enterococcus faecalis
  MIC: 0.02 µg/mL (≈ 0.0446 µM)
Streptococcus pyogenes
  MIC: <=0.003 ug ml-1
Escherichia coli
  MIC: <=0.003 ug ml-1
Staphylococcus aureus [5]
  MIC: 0.01 µg/mL (≈ 0.0223 µM)
Streptococcus mitis
  MIC: <=0.003 ug ml-1
DNA topoisomerase II
  IC50: 22.47 µg/mL (≈ 50.1 µM)
Streptococcus pneumoniae
  MIC: <=0.003 ug ml-1

## Nc1c(F)c(N2C[C@H]3C[C@@H]4C[C@@H]4[C@@H](N)[C@H]3C2)c(F)c2c1c(=O)c(C(=O)O)cn2[C@@H]1C[C@@H]1F (stereo in doubt; 24 (+)) [listing 2 of 2 here]
[4]
  Selectivity: 151

## Nc1c(F)c(N2C[C@H]3C[C@@H]4C[C@@H]4[C@@H](N)[C@H]3C2)c(F)c2c1c(=O)c(C(=O)O)cn2[C@@H]1C[C@@H]1F (stereo in doubt; 25 (-))
Klebsiella pneumoniae
  MIC: 0.1 µg/mL (≈ 0.223 µM)
Staphylococcus aureus [2]
  MIC: 0.006 µg/mL (≈ 0.0134 µM)
[3]
  MIC: 0.05 µg/mL (≈ 0.111 µM)
Enterococcus faecalis
  MIC: 0.2 µg/mL (≈ 0.446 µM)
Streptococcus pyogenes
  MIC: 0.39 µg/mL (≈ 0.87 µM)
Escherichia coli
  MIC: 0.01 µg/mL (≈ 0.0223 µM)
Staphylococcus aureus [5]
  MIC: 1.56 µg/mL (≈ 3.48 µM)
Streptococcus mitis
  MIC: 0.1 µg/mL (≈ 0.223 µM)
Streptococcus pneumoniae
  MIC: 0.1 µg/mL (≈ 0.223 µM)

## Nc1c(F)c(N2C[C@H]3C[C@@H]4C[C@@H]4[C@H](N)[C@H]3C2)c(F)c2c1c(=O)c(C(=O)O)cn2[C@@H]1C[C@@H]1F (stereo in doubt; 26 (+))
[1]
  IC50: 0.847 µM
Klebsiella pneumoniae; [6]
  MIC: 0.01 µg/mL (≈ 0.0223 µM)
Staphylococcus aureus [2]; [7]
  MIC: ≤ 0.003 µg/mL
[3]; [8]
  MIC: ≤ 0.003 µg/mL
Enterococcus faecalis; [9]
  MIC: 0.02 µg/mL (≈ 0.0446 µM)
Streptococcus pyogenes; [10]
  MIC: 0.006 µg/mL (≈ 0.0134 µM)
Escherichia coli; [11]
  MIC: ≤ 0.003 µg/mL
Staphylococcus aureus [5]
  MIC: 0.02 µg/mL (≈ 0.0446 µM)
Streptococcus mitis; [12]
  MIC: ≤ 0.003 µg/mL
DNA topoisomerase II
  IC50: 6.65 µg/mL (≈ 14.8 µM)
Streptococcus pneumoniae; [13]
  MIC: ≤ 0.003 µg/mL
